In PMC11359531, “Establishment of Dissolution Test Method for Multi-Components in Traditional Chinese Medicine Preparations Based on In Vitro–In Vivo Correlation” (Pharmaceuticals, 2024):
Values after ≈ are worked out from the molar mass of the structure shown. Values joined by “and” are separate entries in the source; they are usually repeats but may differ in a detail not shown here. Equal entries are not always repeated. Where two headings read alike, the source gives them in different places.

Legend:
[1] = Caco-2 transport assay (Peff); conditions: human
[2] = Solubility of Q-markers in dissolution media, dose number D0; conditions: for solubility at 24 h: thermodynamic from solid
Procedure: The solubility of the compounds was determined at physiologically relevant pH values (0.1 M of HCl, pH 1.2; acetate buffer, pH 4.5; and phosphate buffer, pH 6.8) as those in dissolution medium, by adding excess compounds to specific medium, vortexing for 30 s, and shaking for 24 h at 37 °C and 120 rpm using a constant temperature shaker. The supernatant was then diluted with an appropriate amount of methanol, and the concentration of each compound was determined using the HPLC method described in Section 3.2. The solubility was evaluated using the dose (D0) values [48], which describe the relationship between solubility and maximum dose strength according to Equation (1). […] (1) D0=M0/V0/CS
M0 was the highest dose of each component under single administration, it should be noted that since there is no sense of the maximum oral dose for the ingredients in herbal preparation, the content of each component in a single dose of the preparation is taken as the maximum administered dose.

[3] = Dissolution test of Q-markers in YZTs, paddle method, and fitting of dissolution profiles; format: physicochemical; conditions: for Best-fitted dissolution model, Functions: YZTs, 75 rpm
Procedure: The dissolution of five Q-markers in YZTs was evaluated using the paddle method in accordance with the Chinese Pharmacopoeia. […] The dissolution tests were conducted at a temperature of 37 ± 0.5 °C and a paddle speed of 75 rpm. Add 6 tablets to each dissolving cup, accompanied by 900 mL of dissolving solution, in 6 parallel aliquots, and samples of 3 mL were collected at 15, 30, 45, 60, 90, 120, 180, 240, and 360 min, respectively. Taking into account the gastric emptying time, the end time of dissolution measurement was 180 min when taking 0.1 M of HCl as dissolution medium. The dissolution medium was replenished after each sampling. The samples were filtered through 0.22 μm membrane and analyzed using the HPLC method described in Section 3.2. The chromatographic results were processed to calculate the concentration of each component at different time points, and the dissolution results were calculated using Equation (3) as follows:(3) D=(CnV1+V2∑i=1n−1Cn−1)×100%/M
Cn is the drug concentration at time point n; V1 is the volume of dissolution medium in the dissolution cup; V2 is the volume of the sample removed at each time point; M is the total drug content.
The Phoenix WinNonlin IVIVC Toolkit provides Hill, Weibull, and Makoid Banakar functions to fit the average dissolution of each component in each dissolved medium. The best-fitting model was selected according to the highest correlation coefficient (R) and the smallest Akaike information criterion (AIC) value in the fitting results.
Hill:(4) Fdiss,vitro=Finf×t^b/MDT^b+t^b
Weibull:(5) Fdiss,vitro=Finf×(1−exp[−t−tlag/MDT]^b)
Makoid Banakar:(6) Fdiss,vitro=Fmax×(t/Tmax)^b×exp[b×(1−t/Tmax)] for t≤T_max (7) Fdiss,vitro=Fmax for t>Tmax where Fdiss,vitro is the fitting fraction dissolved at time t, Finf is the fraction dissolved at time infinity (fixed as 1), MDT is the average dissolution time (hours), Fmax is the maximum in vitro dissolution value, tlag is the lag time, Tmax is the time corresponding to the maximum in vitro dissolution value, and b is the shape parameters.

[4] = dog, in vivo
From the text: The Phoenix WinNonlin IVIVC tool was utilized to evaluate the relationship between in vivo drug dissolution rate and blood drug concentration, which utilizes the Unit Impulse Response (UIR) function for this purpose. By using intravenous administration as the input for the unit impulse response, the influence of drug absorption can be eliminated. The obtained UIR function will be utilized for the deconvolution of pharmacokinetic data to obtain the curve of cumulative drug absorption over time [50]. (8) Y(t)=A×exp[Alpha×(t×Ka−tlag)] in which Y(t) is unit impulse response, A is the coefficient value, Alpha is the exponential value, Ka is the absorption rate constant, tlag is the lag time.

[5] = dog, in vivo; remark: listed apart in the source
From the text: In order to further apply the identified in vivo correlated dissolution conditions to different batches of YZTs, another brand of YZTs was selected for external validation of the dissolution conditions and IVIVC model results. The dissolution data of different brands in the identified media were input into the established IVIVC model to obtain the predicted blood concentration–time curve and to compare the PE% between the predicted value and the actual value.

[6] = 0.1 M HCl, 37 °C, pH 1.2, simulated gastric fluid
[7] = acetate buffer, 37 °C, pH 4.5, aqueous buffer
[8] = phosphate buffer, 37 °C, pH 6.8, aqueous buffer
[9] = D0 = M0/V0/Cs, V0 = 250 mL, content of a single dose of YZTs

Molecule	Papp at 120 min [1] [nm/s]	solubility at 24 h [2, 6] [mg/mL]	solubility at 24 h [2, 7] [mg/mL]	solubility at 24 h [2, 8] [mg/mL]	solubility at 24 h ([2]; water) [mg/mL]	Best-fitted dissolution model, Functions ([3]; 0.1 M HCl)	Best-fitted dissolution model, Functions ([3]; Acetate buffer)	Best-fitted dissolution model, Functions ([3]; FaSSIF-V2)	Best-fitted dissolution model, Functions ([3]; Phosphate buffer)	other results
COc1c2ccoc2c(OC[C@@H](O)C(C)(C)O)c2oc(=O)ccc12 [Byakangelicin, byakangelicin]	89.5	2.66 ± 0.056 (≈ 7960 µM)	1.29 ± 0.0874 (≈ 3860 µM)	0.00763 ± 0.00127 (≈ 22.8 µM)	0.0359 ± 0.00585 (≈ 107 µM)	–	–	–	–	released ([3]; from YZTs, all other dissolution media than simulated gastric fluid and 0.1 M HCl, paddle 75 rpm): less than 40%
COc1cc2c(cc1OC)[C@H]1[C@@H](C)c3ccc(OC)c(OC)c3CN1CC2 [Corydaline, corydaline]	39.4	> 2.39	> 2.39	2.39 ± 0.348 (≈ 6460 µM)	0.00503 ± 0.00085 (≈ 13.6 µM)	y(t) = 0.79 × (1 − exp[−(t/1.06)^2.00])	y(t) = 0.71 × (1 − exp[−(t/1.23)^2.04])	y(t) = 0.15 × (1 − exp[−(t/3.14)^1.77])	y(t) = 0.25 × (1 − exp[−(t/1.94)^2.82])	–
COc1cc2c(cc1OC)[C@@H]1Cc3ccc(OC)c(OC)c3CN1CC2 [Tetrahydropalmatine, tetrahydropalmatine]	37.6	0.655 ± 0.0433 (≈ 1840 µM)	2.67 ± 0.539 (≈ 7500 µM)	0.0197 ± 0.00187 (≈ 55.4 µM)	0.0189 ± 0.00157 (≈ 53.1 µM)	–	–	y(t) = 0.38 × (1 − exp[−(t/3.48)^1.91])	y(t) = 0.30 × (1 − exp[−(t/2.29)^2.34])	UIR parameter A1, Estimate ([4]; beagle): 0.04 ng/mL; UIR parameter Ka, Estimate ([4]; beagle): 1.28 h⁻¹; UIR parameter Tlag, Estimate ([4]; beagle): 0.40 h; UIR parameter alpha1, Estimate ([4]; beagle): 1.30 h⁻¹
COc1ccc2c(c1OC)CN(C)CCc1cc3c(cc1C(=O)C2)OCO3 [α-allocryptopine]	134	0.0487 ± 0.00408 (≈ 132 µM)	0.0458 ± 0.00256 (≈ 124 µM)	0.0447 ± 0.00217 (≈ 121 µM)	2.38 ± 0.521 (≈ 6430 µM)	–	y(t) = 0.86 × (1 − exp[−(t/1.26)^1.97])	–	y(t) = 0.60 × (1 − exp[−(t/1.29)^1.78])	D0, 0.1 M HCl [2, 9]: 0.5441 and <1; D0, Acetate Buffer [2, 9]: 0.5786 and <1; D0, Phosphate Buffer [2, 9]: 0.5928 and <1; released within 6 h ([3]; from YZTs, phosphate buffer and artificial intestinal fluid, paddle 75 rpm): less than 60%
protopine	–	–	–	–	–	y(t) = 0.70 × (1 − exp[−(t/1.10)^2.06])	–	–	y(t) = 0.62 × (1 − exp[−(t/1.50)^1.63])	In Vitro Caco-2 Cell Permeability (Peff) (Caco-2 cells): 74.9 ± 0.803 nm/s; Best-fitted dissolution model, Functions ([3]; FaSSGF): y(t) = 0.82 × (1 − exp[−t^1.01]); Observed AUC [5]: 205.15; Observed Cmax [5]: 1.15 ng/mL; Predicted AUC [5]: 218.10; Predicted Cmax [5]: 1.26 ng/mL; UIR parameter A1, Estimate [4]: 0 ng/mL; UIR parameter Ka, Estimate [4]: 1.36 h⁻¹; UIR parameter Tlag, Estimate [4]: 0.44 h; UIR parameter alpha1, Estimate [4]: 1.35 h⁻¹; Solubility, 0.1 M HCl (pH 1.2): 4.700 ± 0.384 mg/mL; Solubility, Acetate Buffer (pH 4.5): 5.403 ± 0.378 mg/mL; Solubility, Phosphate Buffer (pH 6.8): 0.535 ± 0.0172 mg/mL
